Measured values taken from ChEMBL document CHEMBL2331514, “Structure-based design and synthesis of novel pseudosaccharine derivatives as antiproliferative agents and kinase inhibitors” (Eur J Med Chem, 2013).

Tests used:
Type in all cases: functional
[1] = system: MDA-MB-468; test: Cytotoxicity against human MDA-MB-468 cells assessed as growth inhibition at 10 uM after 48 hrs by SRB assay; details: MDA-MB-468, 48 h, read-out: GI
[2] = system: T47D; test: Cytotoxicity against human T47D cells assessed as growth inhibition at 10 uM after 48 hrs by SRB assay; details: read-out: GI
[3] = system: Hs-578T; test: Cytotoxicity against human Hs578T cells assessed as growth inhibition at 10 uM after 48 hrs by SRB assay; details: read-out: GI
[4] = system: UO-31; test: Cytotoxicity against human UO31 cells assessed as growth inhibition at 10 uM after 48 hrs by SRB assay; details: UO-31, 48 h, read-out: GI
[5] = system: TK-10; test: Cytotoxicity against human TK10 cells assessed as growth inhibition at 10 uM after 48 hrs by SRB assay; details: TK-10, 48 h, read-out: GI
[6] = system: CAKI-1; test: Cytotoxicity against human Caki1 cells assessed as growth inhibition at 10 uM after 48 hrs by SRB assay; details: CAKI-1, 48 h, read-out: GI
[7] = system: A498; test: Cytotoxicity against human A498 cells assessed as growth inhibition at 10 uM after 48 hrs by SRB assay; details: A498, 48 h, read-out: GI
[8] = system: 786-0; test: Cytotoxicity against human 786-0 cells assessed as growth inhibition at 10 uM after 48 hrs by SRB assay; details: 786-0, 48 h, read-out: GI
[9] = system: SK-OV-3; test: Cytotoxicity against human SKOV3 cells assessed as growth inhibition at 10 uM after 48 hrs by SRB assay; details: SK-OV-3, 48 h, read-out: GI
[10] = Cytotoxicity against human NCI-ADR-RES cells assessed as growth inhibition at 10 uM after 48 hrs by SRB assay; details: read-out: GI
[11] = system: OVCAR-8; test: Cytotoxicity against human OVCAR8 cells assessed as growth inhibition at 10 uM after 48 hrs by SRB assay; details: OVCAR-8, 48 h, read-out: GI
[12] = system: OVCAR-5; test: Cytotoxicity against human OVCAR5 cells assessed as growth inhibition at 10 uM after 48 hrs by SRB assay; details: OVCAR-5, 48 h, read-out: GI
[13] = system: OVCAR-3; test: Cytotoxicity against human OVCAR3 cells assessed as growth inhibition at 10 uM after 48 hrs by SRB assay; details: OVCAR-3, 48 h, read-out: GI
[14] = system: UACC-62; test: Cytotoxicity against human UACC62 cells assessed as growth inhibition at 10 uM after 48 hrs by SRB assay; details: UACC-62, 48 h, read-out: GI
[15] = system: SK-MEL-5; test: Cytotoxicity against human SK-MEL-5 cells assessed as growth inhibition at 10 uM after 48 hrs by SRB assay; details: SK-MEL-5, 48 h, read-out: GI
[16] = system: SK-MEL-28; test: Cytotoxicity against human SK-MEL-28 cells assessed as growth inhibition at 10 uM after 48 hrs by SRB assay; details: SK-MEL-28, 48 h, read-out: GI
[17] = system: MDA-MB-435; test: Cytotoxicity against human MDA-MB-435 cells assessed as growth inhibition at 10 uM after 48 hrs by SRB assay; details: MDA-MB-435, 48 h, read-out: GI
[18] = system: SK-MEL-2; test: Cytotoxicity against human SK-MEL-2 cells assessed as growth inhibition at 10 uM after 48 hrs by SRB assay; details: SK-MEL-2, 48 h, read-out: GI
[19] = system: Malme-3M; test: Cytotoxicity against human MALME-3M cells assessed as growth inhibition at 10 uM after 48 hrs by SRB assay; details: read-out: GI
[20] = system: U-251; test: Cytotoxicity against human U251 cells assessed as growth inhibition at 10 uM after 48 hrs by SRB assay; details: U-251, 48 h, read-out: GI
[21] = system: SNB-75; test: Cytotoxicity against human SNB75 cells assessed as growth inhibition at 10 uM after 48 hrs by SRB assay; details: SNB-75, 48 h, read-out: GI
[22] = system: SF-539; test: Cytotoxicity against human SF539 cells assessed as growth inhibition at 10 uM after 48 hrs by SRB assay; details: SF-539, 48 h, read-out: GI
[23] = system: SF-268; test: Cytotoxicity against human SF268 cells assessed as growth inhibition at 10 uM after 48 hrs by SRB assay; details: SF-268, 48 h, read-out: GI
[24] = system: SW-620; test: Cytotoxicity against human SW620 cells assessed as growth inhibition at 10 uM after 48 hrs by SRB assay; details: SW-620, 48 h, read-out: GI
[25] = system: KM12; test: Cytotoxicity against human KM12 cells assessed as growth inhibition at 10 uM after 48 hrs by SRB assay; details: KM12, 48 h, read-out: GI
[26] = system: HT-29; test: Cytotoxicity against human HT-29 cells assessed as growth inhibition at 10 uM after 48 hrs by SRB assay; details: HT-29, 48 h, read-out: GI
[27] = system: HCT-15; test: Cytotoxicity against human HCT15 cells assessed as growth inhibition at 10 uM after 48 hrs by SRB assay; details: HCT-15, 48 h, read-out: GI
[28] = system: HCC 2998; test: Cytotoxicity against human HCC2998 cells assessed as growth inhibition at 10 uM after 48 hrs by SRB assay; details: HCC 2998, 48 h, read-out: GI
[29] = system: NCI-H460; test: Cytotoxicity against human NCI-H460 cells assessed as growth inhibition at 10 uM after 48 hrs by SRB assay; details: NCI-H460, 48 h, read-out: GI
[30] = system: NCI-H322M; test: Cytotoxicity against human NCI-H322M cells assessed as growth inhibition at 10 uM after 48 hrs by SRB assay; details: read-out: GI
[31] = system: NCI-H23; test: Cytotoxicity against human NCI-H23 cells assessed as growth inhibition at 10 uM after 48 hrs by SRB assay; details: NCI-H23, 48 h, read-out: GI
[32] = system: NCI-H226; test: Cytotoxicity against human NCI-H226 cells assessed as growth inhibition at 10 uM after 48 hrs by SRB assay; details: NCI-H226, 48 h, read-out: GI
[33] = system: HOP-62; test: Cytotoxicity against human HOP62 cells assessed as growth inhibition at 10 uM after 48 hrs by SRB assay; details: HOP-62, 48 h, read-out: GI
[34] = system: A549; test: Cytotoxicity against human A549/ATCC cells assessed as growth inhibition at 10 uM after 48 hrs by SRB assay; details: A549, 48 h, read-out: GI
[35] = system: SR; test: Cytotoxicity against human SR cells assessed as growth inhibition at 10 uM after 48 hrs by SRB assay; details: read-out: GI
[36] = system: RPMI-8226; test: Cytotoxicity against human RPMI8226 cells assessed as growth inhibition at 10 uM after 48 hrs by SRB assay; details: RPMI-8226, 48 h, read-out: GI
[37] = system: MOLT-4; test: Cytotoxicity against human MOLT4 cells assessed as growth inhibition at 10 uM after 48 hrs by SRB assay; details: MOLT-4, 48 h, read-out: GI

Row | Compound | inhibition of growth at 10 µM [1] | inhibition of growth at 10 µM [2] | inhibition of growth at 10 µM [3] | inhibition of growth at 10 µM [4] | inhibition of growth at 10 µM [5] | inhibition of growth at 10 µM [6] | inhibition of growth at 10 µM [7] | inhibition of growth at 10 µM [8] | inhibition of growth at 10 µM [9] | inhibition of growth at 10 µM [10] | inhibition of growth at 10 µM [11] | inhibition of growth at 10 µM [12] | inhibition of growth at 10 µM [13] | inhibition of growth at 10 µM [14] | inhibition of growth at 10 µM [15] | inhibition of growth at 10 µM [16] | inhibition of growth at 10 µM [17] | inhibition of growth at 10 µM [18] | inhibition of growth at 10 µM [19] | inhibition of growth at 10 µM [20] | also measured
1 | O=C(Nc1ccc(Cl)cc1)Nc1ccc2c(c1)C(Nc1ccc(Cl)cc1Cl)=NS2(=O)=O | 74% | 87% | 9% | 70% | 57% | 83% | 68% | 73% | 15% | 79% | 65% | 40% | 98% | 71% | 51% | 42% | 65% | 50% | 58% | 73% | inhibition of growth at 10 µM [21]: 30%; inhibition of growth at 10 µM [22]: 42%; inhibition of growth at 10 µM [23]: 40%; inhibition of growth at 10 µM [24]: 69%; inhibition of growth at 10 µM [25]: 80%; inhibition of growth at 10 µM [26]: 57%; inhibition of growth at 10 µM [27]: 76%; inhibition of growth at 10 µM [28]: 72%; inhibition of growth at 10 µM [29]: 87%; inhibition of growth at 10 µM [30]: 27%; inhibition of growth at 10 µM [31]: 92%; inhibition of growth at 10 µM [32]: 63%; inhibition of growth at 10 µM [33]: 33%; inhibition of growth at 10 µM [34]: 69%; inhibition of growth at 10 µM [35]: 60%; inhibition of growth at 10 µM [36]: 98%; inhibition of growth at 10 µM [37]: 73%
2 | O=C(Nc1ccc(OC2=NS(=O)(=O)c3ccccc32)cc1)Nc1ccccc1Cl | 8% | 8% | -1% | 33% | -17% | 6% | 5% | 11% | -7% | 13% | 1% | 3% | 3% | 16% | 9% | -8% | 5% | -1% | 2% | 0% | inhibition of growth at 10 µM [21]: 18%; inhibition of growth at 10 µM [22]: 6%; inhibition of growth at 10 µM [23]: 14%; inhibition of growth at 10 µM [24]: -5%; inhibition of growth at 10 µM [25]: 10%; inhibition of growth at 10 µM [26]: 4%; inhibition of growth at 10 µM [27]: 8%; inhibition of growth at 10 µM [28]: -5%; inhibition of growth at 10 µM [29]: -4%; inhibition of growth at 10 µM [30]: 2%; inhibition of growth at 10 µM [31]: 8%; inhibition of growth at 10 µM [32]: 25%; inhibition of growth at 10 µM [33]: -8%; inhibition of growth at 10 µM [34]: 7%; inhibition of growth at 10 µM [35]: 9%; inhibition of growth at 10 µM [36]: 7%; inhibition of growth at 10 µM [37]: 24%
